In ChEMBL document CHEMBL3792309, “Seeking potent anti-tubercular agents: Design, synthesis, anti-tubercular activity and docking study of various ((triazoles/indole)-piperazin-1-yl/1,4-diazepan-1-yl)benzo[d]isoxazole derivatives” (Bioorg Med Chem Lett, 2016):
Values after ≈ are worked out from the molar mass of the structure shown.

These molecules were tested on Mycobacterium tuberculosis (assay: Antimicrobial activity against p-aminosalicylic acid/isonicotinic acid hydrazide/etambutol/rifampicin resistant Mycobacterium tuberculosis Spec. 210 by classical test tube method).
Assay type: functional

SMILES	MIC
CCc1ccc(-n2cc(CN3CCN(c4noc5ccccc45)CC3)nn2)cc1	> 200 µM
FC(F)(F)c1cc(-n2cc(CN3CCCN(c4noc5ccccc45)CC3)nn2)ccc1Br	24 µM (≈ 12.5 µg/mL)
COc1ccc(-n2cc(CN3CCN(c4noc5ccccc45)CC3)nn2)cc1	> 200 µM
Fc1ccc(-n2cc(CN3CCN(c4noc5cc(Cl)ccc45)CC3)nn2)cc1	121 µM (≈ 50.1 µg/mL)
O=C(CCCc1c[nH]c2ccccc12)N1CCCN(c2noc3ccccc23)CC1	> 200 µM
NNC(=O)c1ccncc1 [ISONIAZID]	91.1 µM (≈ 12.5 µg/mL)
O=C(Cc1c[nH]c2ccccc12)N1CCN(c2noc3cc(Cl)ccc23)CC1	127 µM (≈ 50.1 µg/mL)
Clc1ccc(-n2cc(CN3CCCN(c4noc5ccccc45)CC3)nn2)cc1	> 200 µM
COc1ccc(-n2cc(CN3CCN(c4noc5cc(Cl)ccc45)CC3)nn2)cc1	118 µM (≈ 50.1 µg/mL)
O=C(CCCc1c[nH]c2ccccc12)N1CCN(c2noc3cc(Cl)ccc23)CC1	> 200 µM
C#CCN1CCCN(c2noc3ccccc23)CC1	196 µM (≈ 50 µg/mL)
Fc1ccc(-n2cc(CN3CCN(c4noc5ccccc45)CC3)nn2)cc1	132 µM (≈ 50 µg/mL)
Clc1cccc(-n2cc(CN3CCN(c4noc5ccccc45)CC3)nn2)c1	63.4 µM (≈ 25 µg/mL)
O=C(CCCc1c[nH]c2ccccc12)N1CCN(c2noc3ccccc23)CC1	> 200 µM
COc1cccc(-n2cc(CN3CCN(c4noc5ccccc45)CC3)nn2)c1	128 µM (≈ 50 µg/mL)
O=C(Cc1c[nH]c2ccccc12)N1CCN(c2noc3ccccc23)CC1	> 200 µM
Clc1ccc(-n2cc(CN3CCN(c4noc5ccccc45)CC3)nn2)cc1	> 200 µM
Clc1cccc(-n2cc(CN3CCCN(c4noc5ccccc45)CC3)nn2)c1	122 µM (≈ 50.1 µg/mL)
O=C(CCc1c[nH]c2ccccc12)N1CCN(c2noc3cc(Cl)ccc23)CC1	> 200 µM
C#CCN1CCN(c2noc3cc(Cl)ccc23)CC1	> 200 µM

SMILES	MIC
O=C(Cc1c[nH]c2ccccc12)N1CCCN(c2noc3ccccc23)CC1	134 µM (≈ 50 µg/mL)
O=C(CCc1c[nH]c2ccccc12)N1CCCN(c2noc3ccccc23)CC1	> 200 µM
Fc1ccc(-n2cc(CN3CCCN(c4noc5ccccc45)CC3)nn2)cc1	127 µM (≈ 50 µg/mL)
O=C(CCc1c[nH]c2ccccc12)N1CCN(c2noc3ccccc23)CC1	> 200 µM
FC(F)(F)c1cc(-n2cc(CN3CCN(c4noc5ccccc45)CC3)nn2)ccc1Br	6.16 µM (≈ 3.13 µg/mL)
COc1ccc(-n2cc(CN3CCCN(c4noc5ccccc45)CC3)nn2)cc1	> 200 µM
O=[N+]([O-])c1ccc(-n2cc(CN3CCN(c4noc5ccccc45)CC3)nn2)cc1	> 200 µM
Brc1ccc(-n2cc(CN3CCN(c4noc5ccccc45)CC3)nn2)cc1	> 200 µM
O=[N+]([O-])c1ccc(-n2cc(CN3CCCN(c4noc5ccccc45)CC3)nn2)cc1	> 200 µM
O=[N+]([O-])c1ccc(-n2cc(CN3CCN(c4noc5cc(Cl)ccc45)CC3)nn2)cc1	> 200 µM
FC(F)(F)c1cccc(-n2cc(CN3CCN(c4noc5ccccc45)CC3)nn2)c1	29.2 µM (≈ 12.5 µg/mL)
Clc1ccc2c(N3CCN(Cc4cn(-c5ccc(Br)cc5)nn4)CC3)noc2c1	> 200 µM
Clc1ccc(-n2cc(CN3CCN(c4noc5cc(Cl)ccc45)CC3)nn2)cc1	> 200 µM
Brc1ccc(-n2cc(CN3CCCN(c4noc5ccccc45)CC3)nn2)cc1	> 200 µM
C#CCN1CCN(c2noc3ccccc23)CC1	> 200 µM
CCc1ccc(-n2cc(CN3CCCN(c4noc5ccccc45)CC3)nn2)cc1	> 200 µM
CCc1ccc(-n2cc(CN3CCN(c4noc5cc(Cl)ccc45)CC3)nn2)cc1	> 200 µM
COc1cccc(-n2cc(CN3CCCN(c4noc5ccccc45)CC3)nn2)c1	> 200 µM
FC(F)(F)c1cccc(-n2cc(CN3CCCN(c4noc5ccccc45)CC3)nn2)c1	28.3 µM (≈ 12.5 µg/mL)
